Data on 29 compounds can be found in US20100119599A1 (ARCHER PHARMACEUTICALS, INC., priority 2006, published 2010).

For assay [1], the system named is Aβ1-40. The assay is described as follows: Measurement of Aβ1-40 in culture medium of 7W WT APP751 CHO cells by ELISA.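 As to all read-outs here: 5 µM test compound but RI-coded compounds at 10 µM for 24 hours.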 The format is cell-based, Chinese hamster. As to conditions: for activity at 5 µM: Cricetulus griseus, 5 μM test compound, CHO cells stably transfected with human APP751, culture medium, ELISA, control DMSO; for Aβ1-40 (% of control): CHO cells that overexpress APP751, zero = below the detection limit of the assay.

Assay [2] has as its system Aβ1-42. The assay is described as follows: Measurement of Aβ1-42 in culture medium of 7W WT APP751 CHO cells by ELISA.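 As to Aβ1-42 (% of control): 5 µM test compound but RI-coded compounds at 10 µM for 24 hours.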 The format is cell-based, Chinese hamster. Conditions: for activity at 5 µM: Cricetulus griseus, 5 μM test compound, CHO cells stably transfected with human APP751, culture medium, ELISA, control DMSO; for Aβ1-42 (% of control): CHO cells that overexpress APP751, zero = below the detection limit of the assay.

Setting [3] is: Table 1, 0 = no detectable amount.
[4] abbreviates: Table 1, 0 = no detectable amount, read-out: Aβ1-42 (% of control).

Where two headings read alike, the source gives them in different places.

For the compound `CC1=C(C(=O)OCCOc2ccccc2)C(c2ccc(C)cc2)C2=C(CC(C)(C)CC2=O)N1` (stereo not shown) [ST015095, 2-phenoxyethyl 2,7,7-trimethyl-4-(4-methylphenyl)-5-oxo-1,4,6,7,8-pentahydroquinoline-3-carboxylate], the activity at 5 µM amounted to 59.7% in assay [1] (setting [3]) and 0% in assay [2] (setting [4]).

As to `COCCOC(=O)C1=C(C)NC2=C(C(=O)CC(C)(C)C2)C1c1cc(OC)c(OC)c(OC)c1` (stereo not shown) [ST013356, 2-methoxyethyl 2,7,7-trimethyl-5-oxo-4-(3,4,5-trimethoxyphenyl)-1,4,6,7,8-pentahydroquinoline-3-carboxylate], the figures for the activity at 5 µM in assay [1] (setting [3]) and in assay [2] (setting [4]) were 62.7% and 82.5%, respectively.

Consider `CC1=C(C(=O)OC2CCCCC2)C(c2ccc(Br)cc2)C2=C(CCCC2=O)N1` (stereo not shown) [ST017170, cyclohexyl 4-(4-bromophenyl)-2-methyl-5-oxo-1,4,6,7,8-pentahydroquinoline-3-carboxylate], for which the figures for the activity at 5 µM in assay [1] (setting [3]) and in assay [2] (setting [4]) were 3.47% and 1.38%, respectively.

For `CCCOc1ccccc1C1C(C(=O)OCCc2ccccc2)=C(C)NC2=C1C(=O)CC(C)(C)C2` (stereo not shown) [ST015048, 2-phenylethyl 2,7,7-trimethyl-5-oxo-4-(2-propoxyphenyl)-1,4,6,7,8-pentahydroquinoline-3-carboxylate], the activity at 5 µM in assay [1] (setting [3]) was 37.9%; in assay [2] (setting [4]) it was 88.7%.

Turning to `CCCCCOC(=O)C1=C(C)NC2=C(C(=O)CC(C)(C)C2)C1c1ccc(OCCC)cc1` (stereo not shown) [ST217244, pentyl 2,7,7-trimethyl-5-oxo-4-(4-propoxyphenyl)-1,4,6,7,8-pentahydroquinoline-3-carboxylate], the activity at 5 µM worked out at 24.9% in assay [1] (setting [3]) and 41.5% in assay [2] (setting [4]).

Take `CCCCCOC(=O)C1=C(C)NC2=C(C(=O)CC(C)(C)C2)C1c1ccc(OC)cc1` (stereo not shown) [ST216606, pentyl 4-(4-methoxyphenyl)-2,7,7-trimethyl-5-oxo-1,4,6,7,8-pentahydroquinoline-3-carboxylate]: the activity at 5 µM in assay [1] (setting [3]) was 1.4%; in assay [2] (setting [4]), 9.56%.

`N#CC1=C(N)n2c(s/c(=C\c3cccs3)c2=O)=C(C#N)C1c1cccs1` (stereo not shown) [RI_98]: in assay [1], the “Aβ1-40 (% of control)” value was 74.6 % of control. In assay [2], the “Aβ1-42 (% of control)” value is 78.2 % of control.

In the case of `CC1=C(C(=O)Nc2ccccc2)C(c2cccs2)C(C#N)=C(SCC(=O)NC2CCC(C)CC2)N1` (stereo not shown) [RI_21], the “Aβ1-40 (% of control)” value in assay [1] was 18.7 % of control. Also, in assay [2], the “Aβ1-42 (% of control)” value was 22.1 % of control.

For `CC1(C)CC(=O)C2=C(C1)N(c1ccc(Br)cc1F)C(N)=C(C#N)C2c1ccc(Cl)cc1Cl` (stereo not shown) [ST052048, 2-amino-4-(2,4-dichlorophenyl)-1-(4-bromo-2-fluorophenyl)-7,7-dimethyl-5-oxo-1,4,6,7,8-pentahydroquinoline-3-carbonitrile], the activity at 5 µM in assay [1] (setting [3]) came out at 58.9%; in assay [2] (setting [4]), 33%.

For the compound `CCCCOC(=O)C1=C(C)NC2=C(C(=O)CC(C)(C)C2)C1c1cccc(I)c1` (stereo not shown) [ST056056, butyl 4-(3-iodophenyl)-2,7,7-trimethyl-5-oxo-1,4,6,7,8-pentahydroquinoline-3-carboxylate], the values for the activity at 5 µM in assay [1] (setting [3]) and in assay [2] (setting [4]) were 6.56% and 12.3%, respectively.

For the compound `CC1=C(C(=O)OCCc2ccccc2)C(c2ccc([N+](=O)[O-])cc2)C2=C(CC(C)(C)CC2=O)N1` (stereo not shown) [ST014923, 2-phenylethyl 2,7,7-trimethyl-4-(4-nitrophenyl)-5-oxo-1,4,6,7,8-pentahydroquinoline-3-carboxylate], the activity at 5 µM was determined as 0% in assay [1] (setting [3]) and 28.4% in assay [2] (setting [4]).

On to `CC1(C)CC(=O)C2=C(C1)N(c1cc(C(F)(F)F)ccc1Cl)C(N)=C(C#N)C2c1ccc(Br)s1` (stereo not shown) [ST046868, 2-amino-4-(5-bromo(2-thienyl))-1-[2-chloro-5-(trifluoromethyl)phenyl]-7,7-dimethyl-5-oxo-1,4,6,7,8-pentahydroquinoline-3-carbonitrile], for which the activity at 5 µM in assay [1] (setting [3]) stood at 29.8%; in assay [2] (setting [4]), 84%.

As to `CC(=O)C1=C(C)NC(S)=C(C#N)C1c1ccccc1[N+](=O)[O-]` (stereo not shown) [ST011628, 5-acetyl-6-methyl-4-(2-nitrophenyl)-2-sulfanyl-1,4-dihydropyridine-3-carbonitrile], the “Aβ1-40 (% of control)” value in assay [1] was 74.07 % of control. Further, the “Aβ1-42 (% of control)” value in assay [2] is 76.9 % of control.

Turning to `N[C@@H](Cn1ccc(=O)c(O)c1)C(=O)O` [ST056312, (2S)-2-amino-3-(3-hydroxy-4-oxohydropyridyl)propanoic acid], the activity at 5 µM in assay [1] (Table 3) is 70.7%; in assay [2] (Table 3, read-out: Aβ-42 (% of control)), 37.1%.

Consider `COC(=O)C1=C(C)NC2=C(C(=O)CC(c3ccc(OC)cc3)C2)C1c1cccc([N+](=O)[O-])c1` (stereo not shown) [ST013333, methyl 7-(4-methoxyphenyl)-2-methyl-4-(3-nitrophenyl)-5-oxo-1,4,6,7,8-pentahydroquinoline-3-carboxylate], for which the activity at 5 µM turned out to be 48.4% in assay [1] (setting [3]) and 51.6% in assay [2] (setting [4]).

For `COc1ccc(COC(=O)C2=C(C)NC3=C(C(=O)CCC3)C2c2ccc(Br)cc2)cc1` (stereo not shown) [ST018645, (4-methoxyphenyl)methyl 4-(4-bromophenyl)-2-methyl-5-oxo-1,4,6,7,8-pentahydroquinoline-3-carboxylate], the values for the activity at 5 µM in assay [1] (setting [3]) and in assay [2] (setting [4]) were 7.03% and 18%, respectively.

`COc1cccc(/C=c2/sc3n(c2=O)C(N)=C(C#N)C(c2cccc(OC)c2)C=3C#N)c1` (stereo not shown) [ST215713, 5-amino-7-(3-methoxyphenyl)-2-[(3-methoxyphenyl)methylene]-3-oxo-4,7-dihydro-1,3-thiazolidino[3,2-a]pyridine-6,8-dicarbonitrile]: the “Aβ1-40 (% of control)” value in assay [1] is 69.2 % of control. The “Aβ1-42 (% of control)” value in assay [2] is reported as 80.48 % of control.

In the case of `COC(=O)C1=C(C)NC2=C(C(=O)CCC2)C1c1ccc(Cl)c([N+](=O)[O-])c1` (stereo not shown) [ST052361, methyl 4-(4-chloro-3-nitrophenyl)-2-methyl-5-oxo-1,4,6,7,8-pentahydroquinoline-3-carboxylate], the activity at 5 µM in assay [1] (setting [3]) worked out at 84.1%; in assay [2] (setting [4]), 63.2%.

On to `CCOC(=O)C1=C(C)NC2=C(C(=O)CCC2)C1c1ccc(O)c(OCC)c1` (stereo not shown) [ST013158, ethyl 4-(3-ethoxy-4-hydroxyphenyl)-2-methyl-5-oxo-1,4,6,7,8-pentahydroquinoline-3-carboxylate], for which the activity at 5 µM in assay [1] (setting [3]) came to 75%; in assay [2] (setting [4]), 67.8%.

As to `CCCCCOC(=O)C1=C(C)NC2=C(C(=O)CC(C)(C)C2)C1c1ccc2c(c1)OCO2` (stereo not shown) [ST216581, pentyl 4-(2H-benzo[3,4-d]1,3-dioxolan-5-yl)-2,7,7-trimethyl-5-oxo-1,4,6,7,8-pentahydroquinoline-3-carboxylate], the results for the activity at 5 µM in assay [1] (setting [3]) and in assay [2] (setting [4]) were 28.6% and 41.6%, respectively.

In the case of `CCOc1cc(C2C(C(=O)OCCc3ccccc3)=C(C)NC3=C2C(=O)CCC3)cc(Br)c1O` (stereo not shown) [ST015061, 2-phenylethyl 4-(3-bromo-5-ethoxy-4-hydroxyphenyl)-2-methyl-5-oxo-1,4,6,7,8-pentahydroquinoline-3-carboxylate], the activity at 5 µM in assay [1] (setting [3]) amounted to 40.8%; in assay [2] (setting [4]) it was 33.5%.

On to `CCOc1ccc(C2C(C(=O)OC)=C(C)NC3=C2C(=O)CC(c2ccc(OC)cc2)C3)cc1` (stereo not shown) [ST016974, methyl 4-(4-ethoxyphenyl)-7-(4-methoxyphenyl)-2-methyl-5-oxo-1,4,6,7,8-pentahydroquinoline-3-carboxylate], for which the activity at 5 µM in assay [1] (setting [3]) stood at 34.6%; in assay [2] (setting [4]) it was 57.4%.

As for `COc1ccc(C2CC(=O)C3=C(C2)NC(C)=C(C(=O)OC(C)C)C3c2ccc(OCc3ccccc3)cc2)cc1` (stereo not shown) [ST016961, methylethyl 7-(4-methoxyphenyl)-2-methyl-5-oxo-4-[4-(phenylmethoxy)phenyl]-1,4,6,7,8-pentahydroquinoline-3-carboxylate], the activity at 5 µM in assay [1] (setting [3]) turned out to be 41.8%; in assay [2] (setting [4]), 89.5%.

As to `COC(=O)C1=C(C)NC2=C(C(=O)CC(c3cccs3)C2)C1c1cc(OC)c(Br)cc1OC` (stereo not shown) [ST045143, methyl 4-(4-bromo-2,5-dimethoxyphenyl)-2-methyl-5-oxo-7-(2-thienyl)-1,4,6,7,8-pentahydroquinoline-3-carboxylate], the values for the activity at 5 µM in assay [1] (setting [3]) and in assay [2] (setting [4]) were 22.9% and 16%, respectively.

`CC1=C(C(=O)Nc2ccccc2C)C(c2cccs2)C(C#N)=C(SCC(=O)Nc2ccc(C)c(Cl)c2)N1` (stereo not shown) [ST050840, N-(3-chloro-4-methylphenyl)-2-{3-cyano-6-methyl-5-[N-(2-methylphenyl)carbamoyl]-4-(2-thienyl)(2-1,4-dihydropyridylthio)}acetamide]: in assay [1], the “Aβ1-40 (% of control)” value was 52.3 % of control. Also, the “Aβ1-42 (% of control)” value in assay [2] is 38.84 % of control.

Turning to `CC1=C(C(=O)Nc2ccccc2)C(c2cccs2)C(C#N)=C(SCC(=O)NCCc2ccc(Br)cc2)N1` (stereo not shown) [RI_19], in assay [1], the “Aβ1-40 (% of control)” value was 35.4 % of control. Also, the “Aβ1-42 (% of control)” value in assay [2] is 44.4 % of control.

Take `CC1=C(C(=O)OCCc2ccccc2)C(c2cccc(Cl)c2)C2=C(CC(C)(C)CC2=O)N1` (stereo not shown) [ST015084, 2-phenylethyl 4-(3-chlorophenyl)-2,7,7-trimethyl-5-oxo-1,4,6,7,8-pentahydroquinoline-3-carboxylate]: the activity at 5 µM was determined as 59.5% in assay [1] (setting [3]) and 80.2% in assay [2] (setting [4]).

Take `CCc1cccc(NC(=O)CSC2=C(C#N)C(c3sccc3C)C(C(=O)Nc3ccccc3)=C(C)N2)c1` (stereo not shown) [RI_79]: the “Aβ1-40 (% of control)” value in assay [1] is 55.46 % of control. Moreover, in assay [2], the “Aβ1-42 (% of control)” value was 51.6 % of control.

As for `CCn1c2ccccc2c2cc(C3C(C(=O)OCC4CCCO4)=C(C)NC4=C3C(=O)CCC4)ccc21` (stereo not shown) [ST052207, oxolan-2-ylmethyl 4-(9-ethylcarbazol-3-yl)-2-methyl-5-oxo-1,4,6,7,8-pentahydroquinoline-3-carboxylate], the activity at 5 µM in assay [1] (setting [3]) was 52.3%; in assay [2] (setting [4]) it was 59.6%.
